Values quoted from earlier work as cited in PubChem BioAssay AID1259409 (Chemical Carcinogenesis Research Information System (CCRIS), 2018).

Tested on: rodent chemically induced tumor inhibition, incidence and multiplicity
Assay: CCRIS tumor inhibitor studies
Conditions: Route [Inhibitor]: ORAL, Species: RAT

**Q.** What does the source list for `CCCCCCCCCCCCCCCC(=O)CC(=O)CCCCCCCCCCCCCCC`?
**A.** tumour outcome (control, treated, inhibition, significance) (Carcinogen: 2,2'-DIHYDROXY-DI-N-PROPYLNITROSAMINE, 53609-64-6, N-ETHYL-N-HYDROXYETHYLNITROSAMINE, 13147-25-6, 3,2'-DIMETHYL-4-AMINO-, Carcinogen: 2,2'-DIHYDROXY-DI-N-PROPYLNITROSAMINE, 53609-64-6, N-ETHYL-N-HYDROXYETHYLNITROSAMINE, 13147-25-6, 3,2'-DIMETHYL-4-AMINO-, Dose [Inhibitor]: 0, 0.2% IN DIET FOR 32 WK BEGINNING 1 WK POST CARCINOGEN TREATMENT (STUDY DURATION: 36 WK), Strain/Sex: F344/MALE, Target Tissue: Type of Lesion: LARGE INTESTINE: ADENOMA, Dose [Carcinogen]: 1000 MG/KG BW DHPN TWICE, 1500 MG/KG BW EHEN TWICE, 75 MG/KG BW 3 TIMES ADMINISTERED OVER FIRST 3 WK, Promoter: NONE USED): 7/14 (50%), 7/15 (47%), 6%, not significant; tumour outcome (control, treated, inhibition, significance) (Carcinogen: 2,2'-DIHYDROXY-DI-N-PROPYLNITROSAMINE, 53609-64-6, N-ETHYL-N-HYDROXYETHYLNITROSAMINE, 13147-25-6, 3,2'-DIMETHYL-4-AMINO-, Carcinogen: 2,2'-DIHYDROXY-DI-N-PROPYLNITROSAMINE, 53609-64-6, N-ETHYL-N-HYDROXYETHYLNITROSAMINE, 13147-25-6, 3,2'-DIMETHYL-4-AMINO-, Dose [Inhibitor]: 0, 0.2% IN DIET FOR 32 WK BEGINNING 1 WK POST CARCINOGEN TREATMENT (STUDY DURATION: 36 WK), Strain/Sex: F344/MALE, Target Tissue: Type of Lesion: LARGE INTESTINE: CARCINOMA, Dose [Carcinogen]: 1000 MG/KG BW DHPN TWICE, 1500 MG/KG BW EHEN TWICE, 75 MG/KG BW 3 TIMES ADMINISTERED OVER FIRST 3 WK, Promoter: NONE USED): 3/14 (21%), 2/15 (13%0, 38%, not significant; tumour outcome (control, treated, inhibition, significance) (Carcinogen: 2,2'-DIHYDROXY-DI-N-PROPYLNITROSAMINE, 53609-64-6, N-ETHYL-N-HYDROXYETHYLNITROSAMINE, 13147-25-6, 3,2'-DIMETHYL-4-AMINO-, Carcinogen: 2,2'-DIHYDROXY-DI-N-PROPYLNITROSAMINE, 53609-64-6, N-ETHYL-N-HYDROXYETHYLNITROSAMINE, 13147-25-6, 3,2'-DIMETHYL-4-AMINO-, Dose [Inhibitor]: 0, 0.2% IN DIET FOR 32 WK BEGINNING 1 WK POST CARCINOGEN TREATMENT (STUDY DURATION: 36 WK), Strain/Sex: F344/MALE, Target Tissue: Type of Lesion: LIVER: HEPATOCELLULAR CARCINOMA, Dose [Carcinogen]: 1000 MG/KG BW DHPN TWICE, 1500 MG/KG BW EHEN TWICE, 75 MG/KG BW 3 TIMES ADMINISTERED OVER FIRST 3 WK, Promoter: NONE USED): 6/14 (43%), 1/15 (7%), 84%, p<0.05; tumour outcome (control, treated, inhibition, significance) (Carcinogen: 2,2'-DIHYDROXY-DI-N-PROPYLNITROSAMINE, 53609-64-6, N-ETHYL-N-HYDROXYETHYLNITROSAMINE, 13147-25-6, 3,2'-DIMETHYL-4-AMINO-, Carcinogen: 2,2'-DIHYDROXY-DI-N-PROPYLNITROSAMINE, 53609-64-6, N-ETHYL-N-HYDROXYETHYLNITROSAMINE, 13147-25-6, 3,2'-DIMETHYL-4-AMINO-, Dose [Inhibitor]: 0, 0.2% IN DIET FOR 32 WK BEGINNING 1 WK POST CARCINOGEN TREATMENT (STUDY DURATION: 36 WK), Strain/Sex: F344/MALE, Target Tissue: Type of Lesion: LUNG: ADENOMA, Dose [Carcinogen]: 1000 MG/KG BW DHPN TWICE, 1500 MG/KG BW EHEN TWICE, 75 MG/KG BW 3 TIMES ADMINISTERED OVER FIRST 3 WK, Promoter: NONE USED): 7/14 (50%), 6/15 (40%), 20%, not significant; tumour outcome (control, treated, inhibition, significance) (Carcinogen: 2,2'-DIHYDROXY-DI-N-PROPYLNITROSAMINE, 53609-64-6, N-ETHYL-N-HYDROXYETHYLNITROSAMINE, 13147-25-6, 3,2'-DIMETHYL-4-AMINO-, Carcinogen: 2,2'-DIHYDROXY-DI-N-PROPYLNITROSAMINE, 53609-64-6, N-ETHYL-N-HYDROXYETHYLNITROSAMINE, 13147-25-6, 3,2'-DIMETHYL-4-AMINO-, Dose [Inhibitor]: 0, 0.2% IN DIET FOR 32 WK BEGINNING 1 WK POST CARCINOGEN TREATMENT (STUDY DURATION: 36 WK), Strain/Sex: F344/MALE, Target Tissue: Type of Lesion: LUNG: CARCINOMA, Dose [Carcinogen]: 1000 MG/KG BW DHPN TWICE, 1500 MG/KG BW EHEN TWICE, 75 MG/KG BW 3 TIMES ADMINISTERED OVER FIRST 3 WK, Promoter: NONE USED): 1/14 (7%), 3/15 (20%, -186%, not significant; tumour outcome (control, treated, inhibition, significance) (Carcinogen: 2,2'-DIHYDROXY-DI-N-PROPYLNITROSAMINE, 53609-64-6, N-ETHYL-N-HYDROXYETHYLNITROSAMINE, 13147-25-6, 3,2'-DIMETHYL-4-AMINO-, Carcinogen: 2,2'-DIHYDROXY-DI-N-PROPYLNITROSAMINE, 53609-64-6, N-ETHYL-N-HYDROXYETHYLNITROSAMINE, 13147-25-6, 3,2'-DIMETHYL-4-AMINO-, Dose [Inhibitor]: 0, 0.2% IN DIET FOR 32 WK BEGINNING 1 WK POST CARCINOGEN TREATMENT (STUDY DURATION: 36 WK), Strain/Sex: F344/MALE, Target Tissue: Type of Lesion: THYROID GLAND: ADENOMA, Dose [Carcinogen]: 1000 MG/KG BW DHPN TWICE, 1500 MG/KG BW EHEN TWICE, 75 MG/KG BW 3 TIMES ADMINISTERED OVER FIRST 3 WK, Promoter: NONE USED): 3/14 (21%), 3/15 (20%), 5%, not significant; tumour outcome (control, treated, inhibition, significance) (Carcinogen: 2,2'-DIHYDROXY-DI-N-PROPYLNITROSAMINE, 53609-64-6, N-ETHYL-N-HYDROXYETHYLNITROSAMINE, 13147-25-6, 3,2'-DIMETHYL-4-AMINO-, Carcinogen: 2,2'-DIHYDROXY-DI-N-PROPYLNITROSAMINE, 53609-64-6, N-ETHYL-N-HYDROXYETHYLNITROSAMINE, 13147-25-6, 3,2'-DIMETHYL-4-AMINO-, Dose [Inhibitor]: 0, 0.2% IN DIET FOR 32 WK BEGINNING 1 WK POST CARCINOGEN TREATMENT (STUDY DURATION: 36 WK), Strain/Sex: F344/MALE, Target Tissue: Type of Lesion: URINARY BLADDER: CARCINOMA, Dose [Carcinogen]: 1000 MG/KG BW DHPN TWICE, 1500 MG/KG BW EHEN TWICE, 75 MG/KG BW 3 TIMES ADMINISTERED OVER FIRST 3 WK, Promoter: NONE USED): 1/14 (7%), 1/15 (7%), 0%, not significant; outcome (Carcinogen: 2,2'-DIHYDROXY-DI-N-PROPYLNITROSAMINE, 53609-64-6, N-ETHYL-N-HYDROXYETHYLNITROSAMINE, 13147-25-6, 3,2'-DIMETHYL-4-AMINO-, Carcinogen: 2,2'-DIHYDROXY-DI-N-PROPYLNITROSAMINE, 53609-64-6, N-ETHYL-N-HYDROXYETHYLNITROSAMINE, 13147-25-6, 3,2'-DIMETHYL-4-AMINO-, Dose [Inhibitor]: 0, 0.2% IN DIET FOR 32 WK BEGINNING 1 WK POST CARCINOGEN TREATMENT (STUDY DURATION: 36 WK), Strain/Sex: F344/MALE, Target Tissue: Type of Lesion: URINARY BLADDER: PAPILLOMA, Dose [Carcinogen]: 1000 MG/KG BW DHPN TWICE, 1500 MG/KG BW EHEN TWICE, 75 MG/KG BW ADMINISTERED OVER FIRST 3 WK, Promoter: NONE USED): 0/14 (0%), 3/15 (20%), -100%, not significant; tumour outcome (control, treated, inhibition, significance) (Carcinogen: 2,2'-DIHYDROXY-N-PROPYLNITROSAMINE, 53609-64-6, N-ETHYL-N-HYDROXYETHYL- NITROSAMINE, 13147-25-6, 3,2'-DIMETHYL-4-AMI, Carcinogen: 2,2'-DIHYDROXY-N-PROPYLNITROSAMINE, 53609-64-6, N-ETHYL-N-HYDROXYETHYL- NITROSAMINE, 13147-25-6, 3,2'-DIMETHYL-4-AMI, Dose [Inhibitor]: 0, 0.2% IN DIET BEGINNING 1 WK POST LAST CARCINOGEN DOSE AND CONTINUING FOR 32 WK (STUDY DURATION: 36 WK), Strain/Sex: F344/MALE, Target Tissue: Type of Lesion: LUNG: ADENOMA, Dose [Carcinogen]: 1000 MG/KG IP DHPN 2X , 1500 MG/KG GAV EHEN 2X AND 75 MG/KG SC DMAB 3X GIVEN OVER THE INITIAL 3 WK PERIOD AT 3-4 D INTER, Promoter: NONE USED): 7/14 (50%), 6/15 (40%), 20%, not calculated; tumour outcome (control, treated, inhibition, significance) (Carcinogen: 2-AMINO-1-METHYL-6-PHENYLIMIDAZO[4,5-B]PYRIDINE [105650-23-5], Dose [Inhibitor]: 0.1% IN DIET FOR 54 WK (STUDY DURATION: 54 WK), Strain/Sex: F344/DUCRJ/FEMALE, Target Tissue: Type of Lesion: COLON: ADENOMA OR ADENOCARCINOMA, Dose [Carcinogen]: 0.02% IN DIET FOR 54 WK (STUDY DURATION: 54 WK), Promoter: NONE): 3/20 (15%), 3/20 (15%), 0%, not significant; tumour outcome (control, treated, inhibition, significance) (Carcinogen: 2-AMINO-1-METHYL-6-PHENYLIMIDAZO[4,5-B]PYRIDINE [105650-23-5], Dose [Inhibitor]: 0.1% IN DIET FOR 54 WK (STUDY DURATION: 54 WK), Strain/Sex: F344/DUCRJ/FEMALE, Target Tissue: Type of Lesion: MAMMARY GLAND: ADENOMA OR ADENOCARCINOMA, Dose [Carcinogen]: 0.02% IN DIET FOR 54 WK (STUDY DURATION: 54 WK), Promoter: NONE): 8/20 (40%), 3/20 (15%), 63%, not significant
